According to US20160303184A1, “VANCOMYCIN-SUGAR CONJUGATES AND USES THEREOF” (JAWAHARLAL NEHRU CENTRE FOR ADVANCED SCIENTIFIC RESEARCH …, priority 2013, published 2016):
Values after ≈ are worked out from the molar mass of the structure shown. “Also recorded” adds a separate entry of the source.

What was measured:
[1] = system: Methicillin-sensitive S. aureus (MTCC 737); experiment: MIC, micro-dilution broth, MSSA; format: cell-based; settings: MTCC 737; read-out: MIC MSSA
Method: (§1) All test compounds were assayed in a micro-dilution broth format. Stock solutions were made by serially diluting the compounds using autoclaved millipore water or broth media. The antibacterial activity of the compounds was determined against methicillin-sensitive S. aureus (MSSA), methicillin-resistant S. aureus (MRSA), vancomycin-intermediate-resistant S. aureus (VISA), vancomycin-sensitive E. faecium (VSE) and vancomycin-resistant E. faecium (VRE). Bacteria, to be tested, were grown for about 10 h in the suitable media, MSSA, MRSA and VISA were grown in yeast-dextrose broth (about 1 g of beef extract, about 2 g of yeast extract, about 5 g of peptone and about 5 g of NaCl in about 1000 mL of sterile distilled water (pH-7)). For solid media, about 5% agar was used along with above mentioned composition. VSE and VRE were cultured in brain heart infusion broth (Himedia). The bacterial samples were freeze dried and stored at −80° C. About 5 μL of these stocks were added to about 3 mL of the nutrient broth and the culture was grown for about 6 h at about 37° C. prior to the experiments. This 6 h grown culture gives about 10^9 cfu/mL and this was determined by spread plating method. The 6 h grown culture was diluted to give effective cell concentration of about 10^5 cfu/mL which was then used for determining MIC. Compounds were serially diluted, in sterile water (2 fold dilution is employed) in a way that the working concentration was about 10 μM for MSSA, MRSA, and VSE while for VRE and VISA it was about 100 μM. About 50 μL of these serial dilutions were added to the wells of 96 well plate followed by the addition of about 150 μL of bacterial solution. The plates were then incubated at about 37° C., 150 rpm in the incubator and O.D at 600 nm was recorded at an interval of about 10 h and 24 h using TECAN (Infinite series, M200 pro) Plate Reader. Each concentration had triplicate values and the whole experiment was done at least twice and the MIC value was determined by taking the average of triplicate. O. D. values for each concentration and plotting it against concentration. The data was then subjected to sigmoidal fitting. From the curve the MIC value was determined, as the point in the curve where the O. D. was similar to that of control having no bacteria.

[2] = system: Vancomycin-resistant E. faecium (VanA, ATCC 51559); experiment: MIC, micro-dilution broth, VRE (VanA); format: cell-based; settings: E. faecium ATCC 51559; read-out: MIC VRE (VanA)
Method: as §1

[3] = system: Methicillin-resistant S. aureus (ATCC 33591); experiment: MIC, micro-dilution broth, MRSA; format: cell-based; settings: ATCC 33591; read-out: MIC MRSA
Method: as §1

[4] = system: methicillin-resistant S. aureus clinical isolate; experiment: MIC, clinical isolate of methicillin-resistant S. aureus; format: cell-based; settings: clinical isolate, methicillin-resistant
Method: as §1

[5] = system: VISA; experiment: In-vivo time dependent whole blood assay; design: species or system S. aureus; settings: 12 mg/kg single i.v., CD-1 mice, VISA
Method: The derivative 7 and vancomycin were administered in a single intravenous injection (0.2 mL saline) to normal pathogen-free, female CD-1 mice. Doses of 12 mg kg^−1 were administered to three mice per data point. At the specified time-points (0, 3, 6, 12, 24 and 48 h) mice were euthanized (using ether), blood samples were collected from the ocular puncture. 60 μL of VISA in saline (0.9% NaCl; 10^6 CFU/mL) was added to 540 μL of whole blood which was drawn from the mice and incubated at 37° C. for 3 h. After the incubation period, antibacterial activity was determined by finding the bacterial titer in the infected blood.

[6] = system: Vancomycin-resistant E. faecalis (VanA, ATCC 51575); experiment: MIC, micro-dilution broth, VRE (VanB); format: cell-based; settings: E. faecalis ATCC 51575; read-out: MIC VRE (VanB)
[7] = system: methicillin-resistant S. haemolyticus clinical isolate; experiment: MIC, clinical isolate of methicillin-resistant S. haemolyticus; format: cell-based; settings: clinical isolate, methicillin-resistant; read-out: MIC S. haemolyticus
[8] = system: methicillin-resistant S. epidermidis clinical isolate; experiment: MIC, clinical isolate of methicillin-resistant S. epidermidis; format: cell-based; settings: clinical isolate, methicillin-resistant
[9] = system: Vancomycin-sensitive E. faecium (ATCC 19634); experiment: MIC, micro-dilution broth, VSE; format: cell-based; settings: ATCC 19634; read-out: MIC VSE
Method: as §1

[10] = system: VISA; experiment: Ex-vivo whole blood assay; format: cell-based, S. aureus; settings: 3 h incubation in 90% human whole blood
Method: Ex-vivo whole blood assay was performed to compare the abilities of these compounds to retain activity in complex media. To 30 μL of VISA in saline (0.9% NaCl; 10^6 CFU/mL) 10 μL of test compounds (vancomycin and compound 7) and 270 μL of fresh human whole blood were added and incubated, at 37° C. for about 3 h. After the incubation period, antibacterial activity was determined by finding the bacterial titer in the infected blood.

[11] = system: methicillin-resistant vancomycin-intermediate S. aureus (MR-VISA); experiment: Time-kill assay; format: cell-based; settings: 2 μM and 4 μM
Method: The bactericidal activity was assessed by the kinetics or the rate at which it affects the killing action of the compound. Briefly methicillin-resistant vancomycin-intermediate S. aureus (MR-VISA) grown in Yeast-Dextrose broth. A starting inoculum of 1.6×10^8 CFU/ml was used as initial bacterial colony count. Vancomycin and compound 7 having final concentrations of 2 μM and 4 μM were inoculated with MR-VISA suspensions having starting inocula of 1.6×10^8 CFU/ml. Bacterial suspension containing specified concentrations of the compound along with negative control (which contains only 0.9% Saline) was incubated at 37° C. with shaking. Aliquots (20 μl) were removed from the cultures at different time intervals and were serially diluted 10-fold in 0.9% saline and plated onto sterile Yeast-Dextrose agar medium. The number of viable cells was determined by plating the 10-fold serial dilution of each sample onto Yeast-dextrose agar medium. Plates were then incubated for 24 h at 37° C., CFU was counted and the total bacterial log 10 CFU/ml was determined.

[12] = system: Vancomycin intermediate resistant S. aureus; experiment: MIC, micro-dilution broth, VISA; format: cell-based; settings: read-out: MIC VISA
Method: as §1

## CN[C@H](CC(C)C)C(=O)N[C@H]1C(=O)N[C@@H](CC(N)=O)C(=O)N[C@H]2C(=O)N[C@H]3C(=O)N[C@H](C(=O)N[C@H](C(=O)O)c4cc(O)cc(O)c4-c4cc3ccc4O)[C@H](O)c3ccc(c(Cl)c3)Oc3cc2cc(c3O[C@@H]2O[C@H](CO)[C@@H](O)[C@H](O)[C@H]2O[C@H]2C[C@](C)(N)[C@H](O)[C@H](C)O2)Oc2ccc(cc2Cl)[C@H]1O [Vancomycin]
[1]
  MIC: 0.63 µM (≈ 0.913 µg/mL)
[2]
  MIC: >700 µM
[3]
  MIC: 0.63 µM (≈ 0.913 µg/mL)
[4]
  MIC S. aureus: 0.7 µM (≈ 1.01 µg/mL)
[5]
  antibacterial activity of blood drawn at 3 h: did not show any activity; also recorded: nominal activity
  antibacterial activity of blood drawn at 6 h: did not show any activity
[6]
  MIC: 250 µM (≈ 362 µg/mL)
[7]
  MIC: 1.4 µM (≈ 2.03 µg/mL)
[8]
  MIC S. epidermidis: 0.9 µM (≈ 1.3 µg/mL)
[9]
  MIC: 0.6 µM (≈ 0.87 µg/mL)
[10]
  bactericidal activity in whole blood: slow killing
[11]
  killing kinetics: relatively slow killing or bacteriostatic effect
[12]
  MIC: 13.0 µM (≈ 18.8 µg/mL)
